Laboratory results as given in PMC4826234, “Emodin potentiates the antiproliferative effect of interferon α/β by activation of JAK/STAT pathway signaling through inhibition of the 26S proteasome” (Oncotarget, 2015).

How the values were obtained:
Type in all cases: biochemical
[1] = target: T1, 26S proteasome β5 subunit (chymotrypsin-like activity) (Homo sapiens, UniProt P28074); experiment: peptidase assay of purified human […] proteasome with Suc-Leu-Leu-Val-Tyr-AMC
T1 construct: gene PSMB5; purified human 26S proteasome; with other subunits of the 26S proteasome
T1 sequence (P28074 60-263): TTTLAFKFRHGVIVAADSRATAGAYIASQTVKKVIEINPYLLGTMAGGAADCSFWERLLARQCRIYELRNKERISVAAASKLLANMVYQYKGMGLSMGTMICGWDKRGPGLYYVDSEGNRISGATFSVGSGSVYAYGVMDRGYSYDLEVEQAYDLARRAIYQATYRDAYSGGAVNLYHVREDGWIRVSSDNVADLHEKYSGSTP

[2] = target: T2, 26S proteasome β2 subunit (trypsin-like activity) (Homo sapiens, UniProt Q99436); experiment: peptidase assay of purified human […] proteasome with Ac-Arg-Leu-Arg-AMC
T2 construct: gene PSMB7; purified human 26S proteasome; with other subunits of the 26S proteasome
T2 sequence (Q99436 44-277): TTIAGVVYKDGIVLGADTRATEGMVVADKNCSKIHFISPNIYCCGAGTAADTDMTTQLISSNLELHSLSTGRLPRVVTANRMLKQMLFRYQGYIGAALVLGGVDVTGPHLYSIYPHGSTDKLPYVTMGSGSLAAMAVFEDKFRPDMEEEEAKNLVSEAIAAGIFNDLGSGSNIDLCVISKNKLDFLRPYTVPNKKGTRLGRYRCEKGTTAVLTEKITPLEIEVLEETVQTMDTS

[3] = target: T3, 26S proteasome β1 subunit (caspase-like activity) (Homo sapiens, UniProt P28072); experiment: peptidase assay of purified human […] proteasome with Z-Nle-Pro-Nle-Asp-aminoluciferin
T3 construct: gene PSMB6; purified human 26S proteasome; with other subunits of the 26S proteasome
T3 sequence (P28072 35-239): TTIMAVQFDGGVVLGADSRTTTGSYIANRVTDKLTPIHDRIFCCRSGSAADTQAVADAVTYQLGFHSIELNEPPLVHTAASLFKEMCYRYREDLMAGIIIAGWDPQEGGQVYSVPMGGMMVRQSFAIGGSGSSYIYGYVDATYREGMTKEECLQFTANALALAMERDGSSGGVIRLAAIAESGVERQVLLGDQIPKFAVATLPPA

SMILES: Cc1cc(O)c2c(c1)C(=O)c1cc(O)cc(O)c1C2=O [emodin, 1,3,8-trihydroxy-6-methylanthraquinone]
- IC50 [1]: 1220 nM
- IC50 [2]: 20800 nM
- IC50 [3]: 240 nM
